Reference: US10800741B2 (ANCUREALL PHARMACEUTICAL (SHANGHAI) CO., LTD., priority 2017, dated 2020)

Experiments:
Assay type in all cases: cell-based, Human
H1581 (FGFR1 amp) = test: In vitro growth inhibition of H1581 tumor cells (MTT/CCK8); settings: Homo sapiens, NCI-H1581; in vitro growth inhibition (or induction of apoptosis), cells cultured 3 to 5 days, MTT (CCK8); read-out: IC50 H1581 (FGFR1 amp)
KATO III (FGFR2 amp) = test: In vitro growth inhibition of KATO III tumor cells (MTT/CCK8); settings: Homo sapiens, KATO III; in vitro growth inhibition (or induction of apoptosis), cells cultured 3 to 5 days, MTT (CCK8); read-out: IC50 KATO III (FGFR2 amp)
Hep3B2 (FGFR3/4+++) = test: In vitro growth inhibition of Hep3B2 tumor cells (MTT/CCK8); settings: Homo sapiens, Hep3B; in vitro growth inhibition (or induction of apoptosis), cells cultured 3 to 5 days, MTT (CCK8); read-out: IC50 Hep3B2 (FGFR3/4+++)
MOLM-13 (FLT3-ITD) = test: In vitro growth inhibition of MOLM-13 tumor cells (MTT/CCK8); settings: Homo sapiens, MOLM-13; in vitro growth inhibition (or induction of apoptosis), cells cultured 3 to 5 days, MTT (CCK8); read-out: IC50 MOLM-13 (FLT3-ITD)
KCL-22 (BCR-ABL) = test: In vitro growth inhibition of KCL-22 tumor cells (MTT/CCK8); settings: Homo sapiens, KCL-22; in vitro growth inhibition (or induction of apoptosis), cells cultured 3 to 5 days, MTT (CCK8); read-out: IC50 KCL-22 (BCR-ABL)
Kasumi-1 (KIT N822K) = test: In vitro growth inhibition of Kasumi-1 tumor cells (MTT/CCK8); settings: Homo sapiens, Kasumi 1; in vitro growth inhibition (or induction of apoptosis), cells cultured 3 to 5 days, MTT (CCK8); read-out: IC50 Kasumi-1 (KIT N822K)
H1703 (PDGFRa amp) = test: In vitro growth inhibition of H1703 tumor cells (MTT/CCK8); settings: Homo sapiens, NCI-H1703; in vitro growth inhibition (or induction of apoptosis), cells cultured 3 to 5 days, MTT (CCK8); read-out: IC50 H1703 (PDGFRa amp)
Karpas 299 (NPM-ALK) = test: In vitro growth inhibition of Karpas 299 tumor cells (MTT/CCK8); settings: Homo sapiens, KARPAS-299; in vitro growth inhibition (or induction of apoptosis), cells cultured 3 to 5 days, MTT (CCK8); read-out: IC50 Karpas 299 (NPM-ALK)

COc1cc2nccc(Oc3ccc(NC(=O)Nc4cc(C(C)(C)C)on4)c(Cl)c3)c2cc1C#N [Compound 19, 1-(5-tert-butyl-isoxazol-3-yl)-3-[2-chloro-4-(6-cyano-7-methoxy-quinolin-4-yloxy)-phenyl]-urea]
IC50 (H1581 (FGFR1 amp)): 788 nM
IC50 (KATO III (FGFR2 amp)): 46.8 nM
IC50 (Hep3B2 (FGFR3/4+++)): > 1000 nM
IC50 (MOLM-13 (FLT3-ITD)): 632 nM
IC50 (KCL-22 (BCR-ABL)): 150 nM
IC50 (Kasumi-1 (KIT N822K)): 131 nM
IC50 (H1703 (PDGFRa amp)): 172 nM
IC50 (Karpas 299 (NPM-ALK)): > 1000 nM

CC(C)(C)c1cc(NC(=O)Nc2ccc(Oc3ccnc4cc(OCCN5CCCCC5)c(C(N)=O)cc34)c(Cl)c2Cl)[nH]n1 [Compound 96, 4-{4-[3-(5-tert-butyl-2H-pyrazol-3-yl)-ureido]-2,3-dichloro-phenoxy}-7-(2-piperidin-1-yl-ethoxy)-quinolin-6-carboxamide]
IC50 (H1581 (FGFR1 amp)): 38 nM
IC50 (KATO III (FGFR2 amp)): 1.72 nM
IC50 (Hep3B2 (FGFR3/4+++)): 36.6 nM
IC50 (MOLM-13 (FLT3-ITD)): 7.23 nM
IC50 (KCL-22 (BCR-ABL)): 10.2 nM
IC50 (Kasumi-1 (KIT N822K)): 31.4 nM
IC50 (H1703 (PDGFRa amp)): 45 nM
IC50 (Karpas 299 (NPM-ALK)): > 1000 nM

COc1cc2nccc(Oc3ccc(NC(=O)Nc4cc(C(C)(C)C)no4)c(Cl)c3)c2cc1C(N)=O [Compound 13, 4-{4-[3-(3-tert-butyl-isoxazol-5-yl)-ureido]-3-chloro-phenoxy}-7-methoxyquinolin-6-carboxamide]
IC50 (H1581 (FGFR1 amp)): 0.86 nM
IC50 (KATO III (FGFR2 amp)): 0.84 nM
IC50 (Hep3B2 (FGFR3/4+++)): 6.61 nM
IC50 (MOLM-13 (FLT3-ITD)): 5.41 nM
IC50 (KCL-22 (BCR-ABL)): 3.19 nM
IC50 (Kasumi-1 (KIT N822K)): 5.46 nM
IC50 (H1703 (PDGFRa amp)): 9.74 nM
IC50 (Karpas 299 (NPM-ALK)): 252 nM

CN1CCN(CCCOc2cc3nccc(Oc4ccc(NC(=O)Nc5cc(C(C)(C)C)n[nH]5)c(Cl)c4)c3cc2C(N)=O)CC1 [Compound 82, 4-{4-[3-(5-tert-butyl-2H-pyrazol-3-yl)-ureido]-3-chloro-phenoxy}-7-[3-(4-methyl-piperazin-1-yl)-propoxy]-quinolin-6-carboxamide]
IC50 (H1581 (FGFR1 amp)): 3.61 nM
IC50 (KATO III (FGFR2 amp)): 2.94 nM
IC50 (Hep3B2 (FGFR3/4+++)): 23.9 nM
IC50 (MOLM-13 (FLT3-ITD)): 1.7 nM
IC50 (KCL-22 (BCR-ABL)): 20.6 nM
IC50 (Kasumi-1 (KIT N822K)): 5.21 nM
IC50 (H1703 (PDGFRa amp)): 9.43 nM
IC50 (Karpas 299 (NPM-ALK)): 174 nM

CNC(=O)c1cc2c(Oc3ccc(NC(=O)Nc4cc(C(C)(C)C)nn4C)c(C)c3)ccnc2cc1OC [Compound 50, 4-{4-[3-(5-tert-butyl-2-methyl-2H-pyrazol-3-yl)-ureido]-3-methyl-phenoxy}-7-methoxy quinolin-6-carboxylate acid methylamide]
IC50 (H1581 (FGFR1 amp)): 59.5 nM
IC50 (KATO III (FGFR2 amp)): 0.31 nM
IC50 (Hep3B2 (FGFR3/4+++)): 96.6 nM
IC50 (MOLM-13 (FLT3-ITD)): 16.2 nM
IC50 (KCL-22 (BCR-ABL)): 90 nM
IC50 (Kasumi-1 (KIT N822K)): 65.6 nM
IC50 (H1703 (PDGFRa amp)): 14.5 nM
IC50 (Karpas 299 (NPM-ALK)): 795 nM

COc1cc2nccc(Nc3ccc(NC(=O)Nc4cc(C(C)(C)C)n[nH]4)c(Cl)c3)c2cc1C(N)=O [Compound 79, 4-{4-[3-(5-tert-butyl-2H-pyrazol-3-yl)-ureido]-3-chlorophenylamino}-7-methoxyquinol in-6-carboxamide]
IC50 (H1581 (FGFR1 amp)): 254 nM
IC50 (KATO III (FGFR2 amp)): 19.9 nM
IC50 (Hep3B2 (FGFR3/4+++)): 384 nM
IC50 (MOLM-13 (FLT3-ITD)): 107 nM
IC50 (KCL-22 (BCR-ABL)): > 1000 nM
IC50 (Kasumi-1 (KIT N822K)): > 1000 nM
IC50 (H1703 (PDGFRa amp)): 278 nM
IC50 (Karpas 299 (NPM-ALK)): > 1000 nM

C=CC(=O)Nc1cc2c(Oc3ccc(NC(=O)Nc4cc(C(C)(C)C)on4)c(Cl)c3)ccnc2cc1OC [Compound 22, N-(4-{4-[3-(5-tert-butyl-isoxazol-3-yl)-ureido]-3-chloro-phenoxy}-7-methoxyquinolin-6-yl)-acrylamide]
IC50 (H1581 (FGFR1 amp)): 40.7 nM
IC50 (KATO III (FGFR2 amp)): 8.54 nM
IC50 (Hep3B2 (FGFR3/4+++)): 18.7 nM
IC50 (MOLM-13 (FLT3-ITD)): 16.9 nM
IC50 (KCL-22 (BCR-ABL)): 61.7 nM
IC50 (Kasumi-1 (KIT N822K)): 91.7 nM
IC50 (H1703 (PDGFRa amp)): 27.8 nM
IC50 (Karpas 299 (NPM-ALK)): 610 nM

CC(C)(C)c1cc(NC(=O)Nc2ccc(Oc3ccnc4c(C(F)(F)F)cccc34)cc2Cl)no1 [Compound 114, 1-(5-tert-butyl-isoxazol-3-yl)-3-[2-chloro-4-(8-trifluoromethyl-quinolin-4-yloxy)-phenyl]-urea]
IC50 (H1581 (FGFR1 amp)): > 1000 nM
IC50 (KATO III (FGFR2 amp)): > 1000 nM
IC50 (Hep3B2 (FGFR3/4+++)): > 1000 nM
IC50 (MOLM-13 (FLT3-ITD)): > 1000 nM
IC50 (KCL-22 (BCR-ABL)): > 5000 nM
IC50 (Kasumi-1 (KIT N822K)): > 1000 nM
IC50 (H1703 (PDGFRa amp)): > 1000 nM
IC50 (Karpas 299 (NPM-ALK)): > 1000 nM

CC(C)(C)c1cc(NC(=O)Nc2ccc(Oc3ccnc4cc(OCCN5CCOCC5)c(C(N)=O)cc34)c(Cl)c2Cl)[nH]n1 [Compound 94, 4-{4-[3-(5-tert-butyl-2H-pyrazol-3-yl)-ureido]-2,3-dichloro-phenoxy}-7-(2-morpholin-4-yl-ethoxy)-quinolin-6-carboxamide]
IC50 (H1581 (FGFR1 amp)): 4.17 nM
IC50 (KATO III (FGFR2 amp)): 0.89 nM
IC50 (Hep3B2 (FGFR3/4+++)): 10.6 nM
IC50 (MOLM-13 (FLT3-ITD)): 1.61 nM
IC50 (KCL-22 (BCR-ABL)): 3.66 nM
IC50 (Kasumi-1 (KIT N822K)): 4.22 nM
IC50 (H1703 (PDGFRa amp)): 5.03 nM
IC50 (Karpas 299 (NPM-ALK)): 65 nM

COc1cc2nccc(Nc3ccc(NC(=O)Nc4cc(C(C)(C)C)on4)c(Cl)c3)c2cc1C(N)=O [Compound 77, 4-{4-[3-(5-tert-butyl-isoxazol-3-yl)-ureido]-3-chlorophenylamino}-7-methoxyquinolin-6-carboxamide]
IC50 (H1581 (FGFR1 amp)): 243 nM
IC50 (KATO III (FGFR2 amp)): 17 nM
IC50 (Hep3B2 (FGFR3/4+++)): 494 nM
IC50 (MOLM-13 (FLT3-ITD)): 42.5 nM
IC50 (KCL-22 (BCR-ABL)): 294 nM
IC50 (Kasumi-1 (KIT N822K)): 518 nM
IC50 (H1703 (PDGFRa amp)): 212 nM
IC50 (Karpas 299 (NPM-ALK)): > 1000 nM

COc1cc2nc(Cl)cc(Oc3ccc(NC(=O)Nc4cc(C(C)(C)C)nn4C)c(Cl)c3)c2cc1C(N)=O [Compound 39, 4-{4-[3-(5-tert-butyl-2-methyl-2H-pyrazol-3-yl)-ureido]-3-chloro-phenoxy}-2-chloro-7-methoxyquinolin-6-carboxamide]
IC50 (H1581 (FGFR1 amp)): > 1000 nM
IC50 (KATO III (FGFR2 amp)): > 1000 nM
IC50 (Hep3B2 (FGFR3/4+++)): > 1000 nM
IC50 (MOLM-13 (FLT3-ITD)): > 1000 nM
IC50 (KCL-22 (BCR-ABL)): > 2500 nM
IC50 (Kasumi-1 (KIT N822K)): > 1000 nM
IC50 (H1703 (PDGFRa amp)): > 1000 nM
IC50 (Karpas 299 (NPM-ALK)): > 1000 nM

C=CC(=O)Nc1cc2c(Oc3ccc(NC(=O)Nc4cc(C(C)(C)C)n[nH]4)cc3Cl)ccnc2cc1OC [Compound 105, N-(4-{4-[3-(5-tert-butyl-2H-pyrazol-3-yl)-ureido]-2-chloro-phenoxy}-7-methoxy-quinolin-6-yl)-acrylamide]
IC50 (H1581 (FGFR1 amp)): 39.6 nM
IC50 (KATO III (FGFR2 amp)): 4.07 nM
IC50 (Hep3B2 (FGFR3/4+++)): 83.4 nM
IC50 (MOLM-13 (FLT3-ITD)): 0.59 nM
IC50 (KCL-22 (BCR-ABL)): 45.3 nM
IC50 (Kasumi-1 (KIT N822K)): 57.3 nM
IC50 (H1703 (PDGFRa amp)): 71.9 nM
IC50 (Karpas 299 (NPM-ALK)): 187 nM

CCn1nc(C(C)(C)C)cc1NC(=O)Nc1ccc(Oc2ccnc3cc(OC)c(C(=O)NC)cc23)cc1Cl [Compound 47]
IC50 (H1581 (FGFR1 amp)): 4.93 nM
IC50 (KATO III (FGFR2 amp)): 0.73 nM
IC50 (Hep3B2 (FGFR3/4+++)): 39.3 nM
IC50 (MOLM-13 (FLT3-ITD)): 7.42 nM
IC50 (KCL-22 (BCR-ABL)): 9.38 nM
IC50 (Kasumi-1 (KIT N822K)): 15.9 nM
IC50 (H1703 (PDGFRa amp)): 14.7 nM
IC50 (Karpas 299 (NPM-ALK)): 466 nM

COc1cc2nccc(Oc3ccc(NC(=O)Nc4cc(C(C)(C)C)n[nH]4)c(Cl)c3)c2cc1C(=O)N(C)C [Compound 61]
IC50 (H1581 (FGFR1 amp)): 133 nM
IC50 (KATO III (FGFR2 amp)): 18.4 nM
IC50 (Hep3B2 (FGFR3/4+++)): 368 nM
IC50 (MOLM-13 (FLT3-ITD)): 61.4 nM
IC50 (KCL-22 (BCR-ABL)): 599 nM
IC50 (Kasumi-1 (KIT N822K)): 571 nM
IC50 (H1703 (PDGFRa amp)): 75.8 nM
IC50 (Karpas 299 (NPM-ALK)): 606 nM

CCOc1cc2ncc(C#N)c(Oc3ccc(NC(=O)Nc4cc(C(C)(C)C)n[nH]4)c(Cl)c3)c2cc1NC(C)=O [Compound 68, N-(4-{4-[3-(5-tert-butyl-2H-pyrazol-3-yl)-ureido]-3-chloro-phenoxy}-3-cyano-7-ethoxy-quinolin-6-yl) acetamide]
IC50 (H1581 (FGFR1 amp)): > 1000 nM
IC50 (KATO III (FGFR2 amp)): > 1000 nM
IC50 (Hep3B2 (FGFR3/4+++)): > 1000 nM
IC50 (MOLM-13 (FLT3-ITD)): > 1000 nM
IC50 (KCL-22 (BCR-ABL)): > 1000 nM
IC50 (Kasumi-1 (KIT N822K)): > 1000 nM
IC50 (H1703 (PDGFRa amp)): > 1000 nM
IC50 (Karpas 299 (NPM-ALK)): > 1000 nM
